The test system of data set [1] is sub-genomic HCV NS3-NS5B replicon genotype 1a C316Y (Huh-7 cells). Description: Replicon luciferase cell based assay, genotype 1a C316Y. Conditions: Hepatitis C virus, Huh-7, 48 h, read-out: EC50 1a 316Y. The method, then:
(§1) 150 μL of a 1 mM stock solution in DMSO of each test compound was transferred into in the first column of a 96 well, V-bottom microplate, to give 200 times the top concentration of the required dilution series. Aliquots of 50 μL were added to each well of the remaining rows containing 100 μL of DMSO giving a 1:3 dilution series over ten points. Columns 11 and 12 contained DMSO only for the positive and negative control, respectively. 10 μL of each well were transferred into 90 μL of DMEM medium (Invitrogen #41965-039) supplemented with 5% v/v foetal calf serum, 1% v/v non-essential amino acids solution, 100 units/ml penicillin, 100 μg/ml streptomycin and 2 mM L-glutamine to give 20 times the top concentration of the required dilution series.
(§2) Suspensions were prepared from cultures of Huh-7 cells stably transfected with sub-genomic HCV NS3-NS5B replicons of either genotype 1b (the ET subline described by Pietschmann, T., Lohmann, V., Kaul, A., Krieger, N., Rinck, G., Rutter, G., Strand, D. & Bartenschlager, R., Journal of Virology, 2002, 76, 4008-4021), genotype 1a (subline 1.19 constructed in-house from H77 SG-Neo containing adaptive mutations P1496L and S2204I as described by Blight, K. J., McKeating, J. A., Marcotrigiano, J., and Rice, C. M. Journal of Virology, 2003, 77, 3180-3190), genotype 1b C316N (constructed in-house by site directed mutagenesis of the NS5B gene of the ET subline), or genotype 1a C316Y (constructed in-house by site directed mutagenesis of the NS5B gene of H77 SG-Neo containing adaptive mutations P1496L and S2204I as described by Blight, K. J., McKeating, J. A., Marcotrigiano, J., and Rice, C. M. Journal of Virology, 2003, 77, 3180-3190) linked to a firefly luciferase reporter gene. Monolayers nearing confluency were stripped from growth flasks with versene-trypsin solution and the cells re-suspended in assay medium comprising DMEM. 95 μL of suspension containing either 15,000 cells (genotype 1b luciferase replicon) or 20,000 cells (genotype 1a luciferase replicon) were added to all wells of a 96 well plate (Perkin Elmer, #6005686), except medium controls in column 12 of the assay plate. The cell suspension was dosed with 5 μL of compound solution and the plate was incubated for 48 hours at 37° C. in a 5% CO2 atmosphere.
(§3) For toxicity the cells in one plate were treated with Cell Titer Glo (Promega, #G7573). A solution of Cell Titer Glo was prepared according to the manufacturer's instructions, and 100 μL added to each well. The plate was then read for luminescence on an Envision. For potency a solution of Steady Glo (Promega, #E2550) was prepared according to the manufacturer's instructions and 100 μL added to each well. After a twenty minute incubation the plate was then read for luminescence on an Envision.
(§4) Potency: The luminescence values from all compound-free wells containing cells were averaged to obtain a positive control value. The mean luminescence value from the compound-free wells that had received no cells was used to provide the negative (background) control value. The readings from the wells at each compound concentration were taken and after the subtraction of the mean background from all values, were expressed as a percentage of the positive control signal. The quantifiable and specific reduction of luciferase signal in the presence of a drug is a direct measure of replicon inhibition. BioAssay Enterprise (CamebridgeSoft) with the XC50 module for curve fitting was used to plot the curve of percentage inhibition against compound concentration and derive the 50% inhibitory concentration (EC50) for the compound. EC50 is the effective concentration, that is, the concentration of compound where 50% maximal effect is observed. The EC50 values of two identical plates were averaged. The results are presented in Table 1 as EC50 for genotypes (GT) 1a, 1b, 1b 316N and 1a 316Y.

The subject of data set [2] is sub-genomic HCV NS3-NS5B replicon genotype 1b (Huh-7 cells). Description: Replicon luciferase cell based assay, genotype 1b. Conditions: Hepatitis C virus; Huh-7 genotype 1b luciferase replicon, 48 hours; read-out: EC50 GT1b. The method, then: as §1, §2, §3, §4
For data set [3], the system named is sub-genomic HCV NS3-NS5B replicon genotype 1b C316N (Huh-7 cells). Description: Replicon luciferase cell based assay, genotype 1b C316N. Conditions: read-out: EC50 1b 316N. The method, then: as §1, §2, §3, §4
In data set [4] the test system is sub-genomic HCV NS3-NS5B replicon genotype 1a (Huh-7 cells). Description: Replicon luciferase cell based assay, genotype 1a. The following applies: Huh-7 genotype 1a luciferase replicon, 48 hours, read-out: EC50 GT 1a. The method, then:
as §1, §2, §3, §4

The nature of data set [5]: In vivo pharmacokinetic study, rat. The method, then: In vivo pharmacokinetic studies were conducted in mouse, rat, dog, or cynomolgus monkey to determine clearance, oral exposure and bioavailability (% F). Solution doses of the compounds were administered intravenously through catheters or orally by gavage. Blood samples were collected at the following time points (n=2 or 3/route/species): 0.083 (IV only), 0.167 (IV only), 0.25, 0.5, 1, 2, 4, 6, 8, 12, and 24 h. Non-compartmental pharmacokinetic parameters were determined using Phoenix Winnonlin 6.1 (Pharsight, Mountain View, Calif.). Bioavailability of the oral formulation of each compound were calculated as the ratio of the oral dose normalized AUCinf to the intravenous dose normalized AUCinf. Results are expressed in Table 2.

Where two headings read alike, the source gives them in different places.

`CS(=O)(=O)N(c1ccc(B(O)O)c(Cl)c1)c1cc2oc(-c3ccc(Cl)cc3)c(C(N)=O)c2cc1C1CC1` [Example 14, (4-(N-(3-carbamoyl-2-(4-chlorophenyl)-5-cyclopropylbenzofuran-6-yl)methylsulfonamido)-2-chlorophenyl)boronic acid]: the EC50 was 11 to 200 nM in data set [1]; 1 to 10 nM in data set [2]; 1 to 10 nM in data set [3] (Hepatitis C virus, Huh-7, 48 h); 1 to 10 nM in data set [4] (Hepatitis C virus).
In the case of `CNC(=O)c1c(-c2ccc(F)cc2)oc2cc(N(c3ccc(C4COB(O)C4)c(Cl)c3)S(C)(=O)=O)c(C3CC3)cc12` (stereo not drawn) [Example 25, 6-(N-(3-Chloro-4-(2-hydroxy-1,2-oxaborolan-4-yl)phenyl)methylsulfonamido)-5-cyclopropyl-2-(4-fluorophenyl)-N-methylbenzofuran-3-carboxamide], the half-maximal effective concentration (EC50) in data set [1] fell in the range of 11 to 200 nM; in data set [2] it was 1 to 10 nM; in data set [3] (Hepatitis C virus, Huh-7, 48 h), 11 to 200 nM; in data set [4] (Hepatitis C virus), 1 to 10 nM.
As to `CNC(=O)c1c(-c2ccc(F)cc2)oc2cc(N(c3cccc(B(O)O)c3)S(C)(=O)=O)c(C3CC3)cc12` [Example 4, 3-(N-(5-cyclopropyl-2-(4-fluorophenyl)-3-(methylcarbamoyl)benzofuran-6-yl)methylsulfonamido)phenylboronic acid], the EC50 was greater than 1000 nM in data set [1]; 1 to 10 nM in data set [2]; 11 to 200 nM in data set [3] (Hepatitis C virus, Huh-7, 48 h); 1 to 10 nM in data set [4] (Hepatitis C virus).
On to `CNC(=O)c1c(-c2ccc(F)cc2)oc2cc(N(c3ccc(OCB(O)O)cc3)S(C)(=O)=O)c(C3CC3)cc12` [Example 18, ((4-(N-(5-Cyclopropyl-2-(4-fluorophenyl)-3-(methylcarbamoyl)benzofuran-6-yl)methylsulfonamido)phenoxy)methyl)boronic acid], for which the 50% effective concentration (EC50) in data set [1] is 11 to 200 nM; in data set [2], 1 to 10 nM; in data set [3] (Hepatitis C virus, Huh-7, 48 h) it was 11 to 200 nM.
Take `CNC(=O)c1c(-c2ccc(F)cc2)oc2cc(N(c3ccc(C4CCB(O)O4)c(Cl)c3)S(C)(=O)=O)c(C3CC3)cc12` (single isomer, unassigned; enantiomer 2) [Example 29, 6-(N-(3-Chloro-4-(2-hydroxy-1,2-oxaborolan-5-yl)phenyl)methylsulfonamido)-5-cyclopropyl-2-(4-fluorophenyl)-N-methylbenzofuran-3-carboxamide, enantiomer 2]: the EC50 in data set [3] (Huh-7 genotype 1b C316N luciferase replicon, 48 hours) lay in the range of 11 to 200 nM; in data set [4], 1 to 10 nM.
`CNC(=O)c1c(-c2ccc(F)cc2)oc2cc(N(c3ccc(C4CCB(O)O4)c(Cl)c3)S(C)(=O)=O)c(C3CC3)cc12` (single isomer, unassigned; enantiomer 1) [Example 28, 6-(N-(3-Chloro-4-(2-hydroxy-1,2-oxaborolan-5-yl)phenyl)methylsulfonamido)-5-cyclopropyl-2-(4-fluorophenyl)-N-methylbenzofuran-3-carboxamide, enantiomer 1]: the EC50 in data set [1] is 11 to 200 nM; in data set [2], 1 to 10 nM; in data set [3] (Hepatitis C virus, Huh-7, 48 h), 11 to 200 nM; in data set [4] (Hepatitis C virus), 1 to 10 nM.
As to `CNC(=O)c1c(-c2ccc(F)cc2)oc2cc(N(c3ccc4c(c3)COB4O)S(C)(=O)=O)c(C3CC3)cc12` [Example 20, 5-Cyclopropyl-2-(4-fluorophenyl)-6-(N-(1-hydroxy-1,3-dihydrobenzo[c][1,2]oxaborol-5-yl)methylsulfonamido)-N-methylbenzofuran-3-carboxamide], the EC50 fell in the range of 11 to 200 nM in data set [1]; 1 to 10 nM in data set [2]; 1 to 10 nM in data set [3] (Hepatitis C virus, Huh-7, 48 h); 1 to 10 nM in data set [4] (Hepatitis C virus).
On to `CNC(=O)c1c(-c2ccc(F)cc2)oc2cc(N(c3ccc4c(c3)CCOB4O)S(C)(=O)=O)c(C3CC3)cc12` [Example 30], for which the EC50 in data set [2] lay in the range of 1 to 10 nM; in data set [3] (Hepatitis C virus, Huh-7, 48 h) it was 1 to 10 nM; in data set [4] (Hepatitis C virus), 1 to 10 nM.
As to `CNC(=O)c1c(-c2ccc(F)cc2)oc2cc(N(c3ccc(C4CCB(O)O4)c(Cl)c3)S(C)(=O)=O)c(C3CC3)cc12` (stereo not drawn) [Example 27, 6-(N-(3-Chloro-4-(2-hydroxy-1,2-oxaborolan-5-yl)phenyl)methylsulfonamido)-5-cyclopropyl-2-(4-fluorophenyl)-N-methylbenzofuran-3-carboxamide], the EC50 in data set [1] fell in the range of 11 to 200 nM; in data set [2] it was 1 to 10 nM; in data set [3] (Hepatitis C virus, Huh-7, 48 h), 11 to 200 nM; in data set [4] (Hepatitis C virus) it was 1 to 10 nM.
Regarding `CNC(=O)c1c(-c2ccc(F)cc2)oc2cc(N(c3cc(F)c4c(c3)COB4O)S(C)(=O)=O)c(C3CC3)cc12` [Example 24, 5-Cyclopropyl-6-(N-(7-fluoro-1-hydroxy-1,3-dihydrobenzo[c][1,2]oxaborol-5-yl)methylsulfonamido)-2-(4-fluorophenyl)-N-methylbenzofuran-3-carboxamide], the EC50 is 11 to 200 nM in data set [1]; 1 to 10 nM in data set [2]; 1 to 10 nM in data set [3] (Hepatitis C virus, Huh-7, 48 h); 1 to 10 nM in data set [4] (Hepatitis C virus).
As for `CNC(=O)c1c(-c2ccc(Cl)cc2)oc2cc(N(Cc3ccc(B(O)O)c(F)c3)S(C)(=O)=O)c(C3CC3)cc12` [C], in data set [5] (Rat), the DNAUC was 434 ng·h/mL/mg/kg and the “T 1/2” value worked out at 1.8 H. The same compound returned a clearance in data set [5] (rat, blood, intravenous) of 15.6 mL/min/kg. For the same compound, the Vd in data set [5] (rat, blood, intravenous, read-out: Vss) was 1.1 L/kg. For the same compound, the bioavailability in data set [5] (rat, blood, oral) was found to be 40%.
Turning to `CNC(=O)c1c(-c2ccc(F)cc2)oc2cc(N(c3ccc(B(O)O)cc3)S(C)(=O)=O)c(C3CC3)cc12` [Example 3, 4-(N-(5-cyclopropyl-2-(4-fluorophenyl)-3-(methylcarbamoyl)benzofuran-6-yl)methylsulfonamido)phenylboronic acid], the EC50 lay within 200 to 1000 nM in data set [1]; 1 to 10 nM in data set [2]; 1 to 10 nM in data set [3] (Hepatitis C virus, Huh-7, 48 h); 1 to 10 nM in data set [4] (Hepatitis C virus).
`CNC(=O)c1c(-c2ccc(F)cc2)oc2cc(N(c3ccc(B(O)O)cn3)S(C)(=O)=O)c(C3CC3)cc12` [Example 8, 6-(N-(5-cyclopropyl-2-(4-fluorophenyl)-3-(methylcarbamoyl)benzofuran-6-yl)methylsulfonamido)pyridin-3-ylboronic acid]: the EC50 in data set [2] is greater than 1000 nM; in data set [3] (Hepatitis C virus, Huh-7, 48 h), greater than 1000 nM; in data set [4] (Hepatitis C virus), greater than 1000 nM.
As for `CS(=O)(=O)N(c1ccc(B(O)O)c(Cl)c1)c1cc2oc(-c3ccc(Cl)cc3)c(C(=O)O)c2cc1C1CC1` [Example 13, 6-(N-(4-borono-3-chlorophenyl)methylsulfonamido)-2-(4-chlorophenyl)-5-cyclopropylbenzofuran-3-carboxylic acid], the EC50 is greater than 1000 nM in data set [2]; greater than 1000 nM in data set [3] (Hepatitis C virus, Huh-7, 48 h); greater than 1000 nM in data set [4] (Hepatitis C virus).
